Assay results as given in PubChem BioAssay AID652281 (Sanford-Burnham Center for Chemical Genomics, 2013).
Activity calls are given as the source filed them.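 The calls were made as follows: active = compounds toxic to worms, with a half-maximal toxicity dose of 25 µM or lower; inactive = the rest.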

Tested on: C. elegans VP596 worm health composite score, 20-22 h
Assay: C. elegans worm health toxicity scoring, SAR follow-up, cytotoxicity control for SKN-1 inhibitor project, whole organism, strain VP596, composite health score, round 2 (AID 652281)

| Structure (SMILES) | IC50 |
| --- | --- |
| CCCNCc1cc(Cl)c(OCc2ccc(Cl)cc2)c(OCC)c1 | > 64 µM (inactive) |
| CCOc1cc(CN2CCOCC2)cc(Cl)c1OCc1ccc(Cl)cc1 | > 64 µM (inactive) |
| CCOc1cc(CN(C)C2CCCC2)cc(Cl)c1OCc1ccc(Cl)cc1 | > 64 µM (inactive) |
| CCOc1cc(CNC2CCCC2)cc(Cl)c1OCc1ccc(Br)cc1 | > 64 µM (inactive) |
| CCOc1cc(CN2CCCCC2)cc(Cl)c1OCc1ccc(Cl)cc1 | > 64 µM (inactive) |
| CCOc1cc(CN2CCN(C)CC2)cc(Cl)c1OCc1ccc(Cl)cc1 | > 64 µM (inactive) |
| CCOc1cc(CN2CCN(C)CC2)cc(Cl)c1OCc1ccc(F)cc1 | > 64 µM (inactive) |
| CCOc1cc(CN(C(C)=O)C2CCCC2)cc(Cl)c1OCc1ccc(Cl)cc1 | > 64 µM (inactive) |
| CCOc1cc(CNC2CC2)cc(Cl)c1OCc1ccc(Cl)cc1F | > 64 µM (inactive) |
| CCOc1cc(CNCC2CC2)cc(Cl)c1OCc1ccc(Cl)cc1 | > 64 µM (inactive) |
| Clc1ccc(COc2c(Cl)cc(CNC3CCCC3)cc2Cl)cc1 | > 64 µM (inactive) |
| COc1cc(CNC2CCCC2)cc(Cl)c1OCc1ccc(Cl)cc1 | > 64 µM (inactive) |
| CCOc1cc(CN2CCCC2)cc(Cl)c1OCc1ccc(Cl)cc1 | > 64 µM (inactive) |
| C=CCNCc1cc(Cl)c(OCc2ccc(Cl)cc2)c(OCC)c1 | > 64 µM (inactive) |
| CCOc1cc(CNC2CC2)cc(Cl)c1OCc1ccc(Cl)cc1 | > 64 µM (inactive) |
| CCOc1cc(CNC2CC2)cc(Cl)c1OCc1ccc(C#N)cc1 | > 64 µM (inactive) |
| CCOc1cc(CNC)cc(Cl)c1OCc1ccc(Cl)cc1 | > 64 µM (inactive) |
| CCOc1cc(CNC2CC2)cc(Cl)c1OCc1ccc(Br)cc1 | > 64 µM (inactive) |
| CCOc1cc(CN2CCCCC2)cc(Cl)c1OCc1ccc(F)cc1 | > 64 µM (inactive) |
| COc1cc(CNC2CCCC2)cc(F)c1OCc1ccc(Cl)cc1 | > 64 µM (inactive) |
| COc1cc(CNC2CCCC2)cc(Br)c1OCc1ccc(Cl)cc1 | > 64 µM (inactive) |
| C#CCNCc1cc(Cl)c(OCc2ccc(Cl)cc2)c(OCC)c1 | > 64 µM (inactive) |
| CCOc1cc(CN2CCCC2)cc(Cl)c1OCc1ccc(F)cc1 | > 64 µM (inactive) |
| CCOc1cc(CNC2CCCC2)cc(Cl)c1OCc1ccc(C#N)cc1 | > 64 µM (inactive) |
| CCOc1cc(CN2CCOCC2)cc(Cl)c1OCc1ccc(F)cc1 | > 64 µM (inactive) |
| Cc1cc(CNC2CCCC2)cc(C)c1OCc1ccc(Cl)cc1 | > 64 µM (inactive) |
| CCOc1cc(CNC2CCCC2)cc(Cl)c1OCc1ccc(Cl)cc1F | > 64 µM (inactive) |
